According to a melting point compilation (Tetko et al.):

SMILES	melting point
Cc1cc(C)c2c(=O)n3ccccc3cc2c1	114 °C
COc1cc(C=C(O)C(F)(F)C(F)(F)F)nc(OC)n1	58 to 60 °C
NC1CCC1	-4 °C
COc1ccc(OC2OC(CO)C(O)C(O)C2O)cc1 (stereo not drawn)	159 °C
CCN(CC)C(=O)c1ccc(O)c(OC)c1	95 °C
CCCCCCCCCCCCCCCC(=O)Oc1ccc([N+](=O)[O-])cc1	66 °C
O=C(O)c1cc(C(=O)O)cc(C(=O)O)c1	380 °C
CC(C)C(C(=O)OC(C#N)c1cccc(Oc2ccccc2)c1)c1ccc(Cl)cc1 (stereo not drawn)	60 °C
O=C(O)c1ncccc1O	208 to 212 °C
O=C(c1ccco1)c1nn2c(nc(=O)c3ccccc32)s1	325 °C
CC(=O)Oc1ccc(I)cc1	32 °C
Oc1c(Cl)cc(Cl)c(Cl)c1Cl	70 °C
FC(F)(F)C(F)(F)C(F)(F)C(F)(F)F	-128 °C
FC(F)(F)C(F)(F)C(F)(F)C(F)(C(F)(F)F)C(F)(F)F	-119 °C
O=C(Cl)c1ccc2c(c1)CCO2	49 to 51 °C
CNCc1csc(C2CCN(C(=O)OC(C)(C)C)CC2)n1	43 to 47 °C
O=Cc1c[nH]nc1-c1ccc(F)cc1	160 to 164 °C
C=C(C)C(C)(C)CC	-69 °C
O=C(O)C(c1ccccc1)C1CCCC1 (stereo not drawn)	96 to 100 °C
O=C(O)c1ccc(-c2ccc(O)cc2)cc1	316 °C
CC(=O)OC1CC2C3CCC(C(C)CCCC(C)C)C3(C)CCC2C2(C)CCC(O)CC12O (stereo not drawn)	141 °C
C=C1C(=O)C23C(OC(C)=O)CC4C5(C)CCCC4(C(OC(C)=O)OC5)C2C(OC(C)=O)CC1C3OC(C)=O (stereo not drawn)	224 °C
OC12CCCCC1c1ccccc12 (stereo not drawn)	112 °C
Cc1cc(C)c(O)c(C(C)(C)C)c1	22.3 °C

SMILES	melting point
BrC(Br)c1ccc(C(Br)Br)cc1	170 to 173 °C
Nc1cccc(F)c1	-5 °C
CNC(=O)Oc1ccc(N(C)C)c(C)c1	93.9 °C
CC(=O)c1ccc(N2CCCCC2)cc1	84 to 90 °C
Cc1ccc(/C=C(\C#N)c2nc(-c3ccccc3)cs2)cc1	78 to 80 °C
CN(C)CCCCN(C)C	-100 °C
CC1(C)CCC2(C)CC=C3C(C)(CCC4C3(C)CCC3C(C)(C)C(O)CCC43C)C2C1 (stereo not drawn)	284 °C
CCOC(=O)c1c(NC(=S)NCc2ccccc2)sc2c1CCCC2	125 to 127 °C
O=C(O)c1cccc(C(=O)c2ccccc2)c1	164 °C
CC(=O)Oc1c(-c2ccccc2)[nH]c2ccccc12	107 °C
COc1cc2c(cc1C)C(=O)C2	88 °C
c1ccc(-c2ncoc2-c2ccccc2)cc1	44 °C
O=C(C1=NOC2C(=O)N(c3cccc([N+](=O)[O-])c3)C(=O)C12)c1cccs1 (stereo not drawn)	164 °C
Clc1ncnc2sc3c(c12)CCC3	108 to 110 °C
O=C(OC(=O)C(F)(F)C(F)(F)C(F)(F)F)C(F)(F)C(F)(F)C(F)(F)F	-43 °C
NNc1cnn(-c2ccccc2)c(=O)c1Cl	170 °C
COC(=O)CS(C)(=O)=O	62 to 63 °C
CCOC(=O)c1cc2cc3cc(C(=O)OCC)c(C)nc3cc2nc1C	167 °C
O=C(O)C(Cl)(Cl)CCl	65.5 °C
NC(=O)OCC(Cl)(Cl)Cl	64 °C
O=Cc1cccc2c1CCOC2=O	140 °C
COc1c(Cl)cc(Cl)c(OC)c1C(N)=O	148 to 149 °C
CC(=O)C1(C)Cc2ccccc2C(=O)O1 (stereo not drawn)	105 °C
CC(=O)Oc1c(-c2ccccc2)[nH]c2cc([N+](=O)[O-])ccc12	191 °C

SMILES	melting point
CCOC(C)(C)C	-94 °C
c1ccc(-c2csc3nc4ccccc4n23)cc1	140 to 142 °C
CCCCC(O)(Cn1cncn1)c1ccc(Cl)cc1Cl (stereo not drawn)	111 °C
CCOC(=O)c1nn(-c2ccccc2)c(=N)c(-c2nc3ccccc3s2)c1C	148 °C
[N-]=[N+]=Nc1ccccc1-c1ccccc1	49 °C
Cc1nn(-c2ccccc2)nc1C(=O)NNS(=O)(=O)c1ccccc1	217 to 219 °C
Cc1nc(-c2ccccn2)nc(Cl)c1Cl	127 to 129 °C
Cc1cc(O)c(C)cc1N	242 °C
COc1c(C(=O)Cl)csc1Cl	66 to 68 °C
CC1CCC(C)(COC(=O)c2ccccc2C(=O)OCC2(C)CCC(C)C2(C)C)C1(C)C (stereo not drawn)	80 °C
O=Cc1c[nH]c2ccc([N+](=O)[O-])cc12	300 °C
CCOC(=O)c1nn(-c2ccc(Cl)cc2Cl)c(-c2ccc([N+](=O)[O-])cc2)c1S(=O)(=O)c1ccccc1	118 °C
O=C(c1ccc(Cl)cc1)c1nn(-c2ccccc2)/c(=N\N=Cc2ccc(F)cc2)s1	150 °C
FC(F)(F)c1cc(N=C=S)ccc1Cl	34 to 36 °C
O=C(NC(Cc1ccc2ccccc2c1)C(=O)O)OCC1c2ccccc2-c2ccccc21 (stereo not drawn)	191 °C
CCCCc1nc(CO)c(Cl)[nH]1	150 to 152 °C
N#Cc1cc(F)c(F)c(F)c1	46 °C
O=[N+]([O-])c1ccc(Cl)cc1Nc1ccccc1	110 to 114 °C
CCC(=O)c1ccc(O)cc1	150 °C
BrCCOc1ccccc1	39 °C
CCCCCC(C)OC(=O)COc1ccc(Cl)c2cccnc12 (stereo not drawn)	69.4 °C
OC1COC(Oc2ccc3cc(Br)ccc3c2)C(O)C1O (stereo not drawn)	190 to 196 °C
Clc1ccnc(Cl)n1	60 °C
O=C(O)C1CCOCC1	87 to 89 °C

SMILES	melting point
O=C(CCCl)c1ccccc1	48.5 °C
NS(=O)(=O)c1cc2c(s1)S(=O)(=O)CCC2=O	242 °C
N#Cc1ncccc1Cl	84 °C
C=CC(C)(C)C(=O)O	-6 °C
Cn1c(=O)c(C2=NNC(=O)C2=C2C(=O)Nc3ccccc32)c(O)c2ccccc21	279 °C
C#CC1(O)CCC2C3CCc4cc(O)ccc4C3CCC21C (stereo not drawn)	141 °C
C=C(C)C(C)=O	-54 °C
Brc1ccc2[nH]c3ccc(Br)cc3c2c1	212 °C
CCOC(=O)c1cccc(O)c1	74 °C
OC1CSC(O)CS1 (stereo not drawn)	108 to 145 °C
O=c1c(Br)c(SCc2ccccc2)cnn1-c1ccccc1	137 to 138 °C
N/N=C(/C(=O)c1cccc2ccccc12)c1ccccc1	152 °C
O=C(O)c1ccc(N=C=S)cc1	220 °C
Cn1cc(C=O)c(N)n1	133 to 134 °C
COC(=O)Cc1csc2ccc(Cl)cc12	55 to 56 °C
BrC(c1ccccc1)c1ccccc1	45 °C
CC(C)Cn1cnc2c(N)nc3ccccc3c21	293 °C
BrCc1cc(Br)cc(Br)c1	94 °C
O=Cc1c[nH]c2cc(Br)ccc12	202 to 203 °C
CC(C)=C1C(=O)NN(c2ccccc2)C1=O	166 °C
COC(=O)c1ccc2c(I)c[nH]c2c1	150 °C
